The values that follow come from ChEMBL document CHEMBL1201862, “PubChem BioAssay data set” (2004).

Activity calls are given as the source filed them. Some results are limits rather than exact numbers.

One test deals with T1, Hexokinase HKDC1 (Homo sapiens, UniProt Q2TB90).
T1 sequence (Q2TB90 whole entry): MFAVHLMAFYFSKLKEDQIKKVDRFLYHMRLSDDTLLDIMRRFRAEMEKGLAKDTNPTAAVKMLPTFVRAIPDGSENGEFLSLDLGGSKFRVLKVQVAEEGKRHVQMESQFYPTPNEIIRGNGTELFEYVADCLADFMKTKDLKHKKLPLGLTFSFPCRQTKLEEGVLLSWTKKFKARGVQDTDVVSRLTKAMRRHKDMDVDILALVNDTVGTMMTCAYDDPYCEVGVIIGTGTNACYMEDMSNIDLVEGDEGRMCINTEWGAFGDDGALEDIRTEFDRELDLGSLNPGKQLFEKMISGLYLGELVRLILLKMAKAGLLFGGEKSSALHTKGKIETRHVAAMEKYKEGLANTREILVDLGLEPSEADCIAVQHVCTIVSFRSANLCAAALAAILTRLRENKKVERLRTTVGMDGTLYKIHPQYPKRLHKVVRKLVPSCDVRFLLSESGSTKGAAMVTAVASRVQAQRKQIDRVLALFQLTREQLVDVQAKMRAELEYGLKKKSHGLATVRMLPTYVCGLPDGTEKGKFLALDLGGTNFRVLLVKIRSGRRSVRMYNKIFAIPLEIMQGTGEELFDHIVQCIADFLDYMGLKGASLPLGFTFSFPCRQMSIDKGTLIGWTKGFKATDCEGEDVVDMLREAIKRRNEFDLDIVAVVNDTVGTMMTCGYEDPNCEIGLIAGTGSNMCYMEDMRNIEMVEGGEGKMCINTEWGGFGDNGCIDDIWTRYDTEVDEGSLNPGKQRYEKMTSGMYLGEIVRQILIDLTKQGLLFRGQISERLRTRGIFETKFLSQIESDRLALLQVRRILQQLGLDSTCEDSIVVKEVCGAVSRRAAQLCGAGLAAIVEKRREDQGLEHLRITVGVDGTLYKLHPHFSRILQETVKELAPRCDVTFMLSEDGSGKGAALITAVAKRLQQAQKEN
Description: HKDC1 hexokinase activators, dose response, biochemical, W721R variant (AID 504730). Type of test: functional.

A further test addresses Hexokinase-1 (Homo sapiens, UniProt P19367). Description: hexokinase 1 activators, dose response, selectivity assay for HKDC1 activator project, biochemical (AID 504762). The format is functional.
Test [1] has as its target Neuropeptide Y receptor type 1 (Homo sapiens, UniProt P25929). The format is functional.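 Note: HEK293 cells with a CNG channel challenged with NPY then isoproterenol; potency as antagonist that reverses NPY suppression of cAMP signal.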
The target in test [2] is Neuropeptide Y receptor type 2 (Homo sapiens, UniProt P49146). Type of test: functional, cell-based.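 Note: HEK293 cells expressing the receptor and a CNG channel; stimulus was NPY near EC95 followed by isoproterenol to raise cAMP; antagonist potency measured as restoring cAMP signal that NPY suppresses.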
Test [3] deals with T2, Replicative DNA helicase DnaB (Mycobacterium tuberculosis, UniProt P9WMR3).
T2 sequence (P9WMR3 whole entry): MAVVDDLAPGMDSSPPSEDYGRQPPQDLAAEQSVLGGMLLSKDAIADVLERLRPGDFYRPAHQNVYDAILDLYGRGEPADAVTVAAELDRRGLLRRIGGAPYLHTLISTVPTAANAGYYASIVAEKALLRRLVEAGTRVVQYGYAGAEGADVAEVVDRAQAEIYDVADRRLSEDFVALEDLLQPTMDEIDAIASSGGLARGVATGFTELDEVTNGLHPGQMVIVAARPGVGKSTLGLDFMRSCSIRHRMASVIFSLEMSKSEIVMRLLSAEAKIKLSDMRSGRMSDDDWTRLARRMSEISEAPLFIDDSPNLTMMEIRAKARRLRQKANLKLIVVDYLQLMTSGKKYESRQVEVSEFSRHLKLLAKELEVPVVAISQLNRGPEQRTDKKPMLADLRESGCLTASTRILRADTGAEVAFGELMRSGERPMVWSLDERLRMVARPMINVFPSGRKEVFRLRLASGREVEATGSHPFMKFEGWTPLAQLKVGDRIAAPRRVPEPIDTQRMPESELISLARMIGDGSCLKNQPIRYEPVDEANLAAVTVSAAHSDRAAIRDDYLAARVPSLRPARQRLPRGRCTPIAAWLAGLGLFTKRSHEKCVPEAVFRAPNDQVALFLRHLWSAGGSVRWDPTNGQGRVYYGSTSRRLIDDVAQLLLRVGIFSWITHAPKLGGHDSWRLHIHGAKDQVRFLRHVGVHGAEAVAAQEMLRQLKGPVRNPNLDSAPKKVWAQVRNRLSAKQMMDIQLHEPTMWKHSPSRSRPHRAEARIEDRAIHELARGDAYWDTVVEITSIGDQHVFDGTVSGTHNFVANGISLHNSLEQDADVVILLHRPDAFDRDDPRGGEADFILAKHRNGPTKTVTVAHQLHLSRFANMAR
Kind of test: DnaB intein splicing inhibitors, dose response, biochemical, cell-free fluorescence (AID 449749). The format is functional.

Test [4] can be described thus: Intein inhibitors as potential Tuberculosis drugs, a cytotoxicity screen. [Related pubchem assays (depositor defined):AID2221, AID2223, AID434968, AID435010, AID449749, AID449750, AID489010]. Type of test: functional.
In a further test the target is T3, Protein RecA (Mycobacterium tuberculosis, UniProt P9WHJ3).
T3 sequence (P9WHJ3 whole entry): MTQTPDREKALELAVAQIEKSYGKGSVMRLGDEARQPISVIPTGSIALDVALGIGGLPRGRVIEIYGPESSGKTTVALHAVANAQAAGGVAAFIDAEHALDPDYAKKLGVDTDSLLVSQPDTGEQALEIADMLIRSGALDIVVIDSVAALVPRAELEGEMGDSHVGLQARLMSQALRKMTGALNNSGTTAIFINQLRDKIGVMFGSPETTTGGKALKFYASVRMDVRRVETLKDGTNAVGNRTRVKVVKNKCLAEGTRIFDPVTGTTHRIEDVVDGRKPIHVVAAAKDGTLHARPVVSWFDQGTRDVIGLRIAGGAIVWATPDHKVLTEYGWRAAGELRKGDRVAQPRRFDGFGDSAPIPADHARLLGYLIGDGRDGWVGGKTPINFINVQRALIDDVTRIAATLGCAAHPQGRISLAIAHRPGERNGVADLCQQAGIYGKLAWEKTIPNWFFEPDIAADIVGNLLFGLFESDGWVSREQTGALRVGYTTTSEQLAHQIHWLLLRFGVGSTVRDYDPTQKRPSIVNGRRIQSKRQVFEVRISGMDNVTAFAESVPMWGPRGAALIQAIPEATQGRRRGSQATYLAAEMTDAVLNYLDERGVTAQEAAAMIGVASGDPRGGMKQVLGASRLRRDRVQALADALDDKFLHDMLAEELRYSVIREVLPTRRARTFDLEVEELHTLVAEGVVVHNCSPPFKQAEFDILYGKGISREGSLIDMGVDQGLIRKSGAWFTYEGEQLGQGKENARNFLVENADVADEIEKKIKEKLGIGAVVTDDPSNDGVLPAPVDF
Kind of test: Fluorescence Cell-Free Homogeneous Dose Retest to Identify Inhibitors of RecA-Intein Splicing Activity. [Related pubchem assays (depositor defined):AID2097, AID2223, AID489010, AID492950]. Type of test: functional.

The test system of the next test is INS1. Kind of test: beta cell apoptosis inhibitors, cytokine rescue, dose response, luminescence, retest (AID 449756).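 Note: cell death triggered by IL-1 beta plus TNF-alpha plus IFN-gamma mixture; protective hits raise ATP signal compared with cytokine alone wells.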 Type of test: functional, cell-based. The conditions noted are these: Rattus norvegicus.
A short description of test [5]: human group III sPLA2 inhibitors, dose response, biochemical, QFRET, IC50 (AID 743457).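 Note: green fluorescence rise as the enzyme cleaves BODIPY PC-A2 in liposomes; potency for inhibition of the enzyme.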
The next test concerns the target Nonstructural protein 1 (Influenza A virus, UniProt Q194T2). Type of test: functional, Influenza A virus (A/California/07/2009(H1N1)).
Test [6] has as its target T4, Ubiquitin-conjugating enzyme E2 N (Homo sapiens, UniProt P61088).
T4 sequence (P61088 whole entry): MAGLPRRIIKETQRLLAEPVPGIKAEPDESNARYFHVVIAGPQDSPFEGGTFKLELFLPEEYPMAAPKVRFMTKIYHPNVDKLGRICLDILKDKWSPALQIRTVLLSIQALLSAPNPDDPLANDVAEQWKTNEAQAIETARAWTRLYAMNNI
The format is functional.

Test [7] deals with T4, Ubiquitin-conjugating enzyme E2 N. The format is functional. The source holds these as a separate data set.
Test [8] deals with Lysine-specific demethylase 4C (Homo sapiens, UniProt Q9H3R0). Kind of test: GASC-1 (JMJD2C) histone demethylase inhibitors, dose response, biochemical, DELFIA europium, cherry-picked samples (AID 488835). The format is functional.
For the next test, the target named is T5, Bcl-2-related protein A1 (Mus musculus, UniProt Q07440).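 Note: confirmatory dose–response counterscreen on Bfl-1, used to check hits from a UBC13 polyubiquitin inhibitor campaign.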
T5 sequence (Q07440 whole entry): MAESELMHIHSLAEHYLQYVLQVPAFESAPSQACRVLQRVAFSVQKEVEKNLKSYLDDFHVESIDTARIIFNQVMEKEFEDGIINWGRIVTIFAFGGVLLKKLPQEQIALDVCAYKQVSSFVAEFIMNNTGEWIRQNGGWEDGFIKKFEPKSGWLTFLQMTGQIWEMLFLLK
The format is functional.
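Throughout, for CC50: cells exposed to compound for 72 hours before luminescence readout.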

Nonstructural protein 1, sequence (Q194T2 whole entry): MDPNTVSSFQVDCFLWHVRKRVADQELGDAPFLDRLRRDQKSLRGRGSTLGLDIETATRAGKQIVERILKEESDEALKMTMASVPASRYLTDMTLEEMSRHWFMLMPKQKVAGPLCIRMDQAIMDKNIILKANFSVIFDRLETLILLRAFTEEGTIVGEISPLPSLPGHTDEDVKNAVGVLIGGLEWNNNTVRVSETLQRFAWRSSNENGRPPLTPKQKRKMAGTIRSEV
Neuropeptide Y receptor type 2, sequence (P49146 whole entry): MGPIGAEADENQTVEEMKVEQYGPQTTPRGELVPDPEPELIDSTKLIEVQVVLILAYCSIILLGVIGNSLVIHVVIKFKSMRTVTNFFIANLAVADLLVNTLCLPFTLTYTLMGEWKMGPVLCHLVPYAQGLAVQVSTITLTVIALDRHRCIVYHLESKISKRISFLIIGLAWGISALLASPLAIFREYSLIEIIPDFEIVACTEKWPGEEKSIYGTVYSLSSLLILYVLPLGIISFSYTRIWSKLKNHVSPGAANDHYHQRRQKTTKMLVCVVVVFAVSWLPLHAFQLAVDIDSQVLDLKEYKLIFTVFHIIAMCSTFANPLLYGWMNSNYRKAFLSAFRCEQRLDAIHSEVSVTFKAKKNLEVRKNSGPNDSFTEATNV
Lysine-specific demethylase 4C, sequence (Q9H3R0 whole entry): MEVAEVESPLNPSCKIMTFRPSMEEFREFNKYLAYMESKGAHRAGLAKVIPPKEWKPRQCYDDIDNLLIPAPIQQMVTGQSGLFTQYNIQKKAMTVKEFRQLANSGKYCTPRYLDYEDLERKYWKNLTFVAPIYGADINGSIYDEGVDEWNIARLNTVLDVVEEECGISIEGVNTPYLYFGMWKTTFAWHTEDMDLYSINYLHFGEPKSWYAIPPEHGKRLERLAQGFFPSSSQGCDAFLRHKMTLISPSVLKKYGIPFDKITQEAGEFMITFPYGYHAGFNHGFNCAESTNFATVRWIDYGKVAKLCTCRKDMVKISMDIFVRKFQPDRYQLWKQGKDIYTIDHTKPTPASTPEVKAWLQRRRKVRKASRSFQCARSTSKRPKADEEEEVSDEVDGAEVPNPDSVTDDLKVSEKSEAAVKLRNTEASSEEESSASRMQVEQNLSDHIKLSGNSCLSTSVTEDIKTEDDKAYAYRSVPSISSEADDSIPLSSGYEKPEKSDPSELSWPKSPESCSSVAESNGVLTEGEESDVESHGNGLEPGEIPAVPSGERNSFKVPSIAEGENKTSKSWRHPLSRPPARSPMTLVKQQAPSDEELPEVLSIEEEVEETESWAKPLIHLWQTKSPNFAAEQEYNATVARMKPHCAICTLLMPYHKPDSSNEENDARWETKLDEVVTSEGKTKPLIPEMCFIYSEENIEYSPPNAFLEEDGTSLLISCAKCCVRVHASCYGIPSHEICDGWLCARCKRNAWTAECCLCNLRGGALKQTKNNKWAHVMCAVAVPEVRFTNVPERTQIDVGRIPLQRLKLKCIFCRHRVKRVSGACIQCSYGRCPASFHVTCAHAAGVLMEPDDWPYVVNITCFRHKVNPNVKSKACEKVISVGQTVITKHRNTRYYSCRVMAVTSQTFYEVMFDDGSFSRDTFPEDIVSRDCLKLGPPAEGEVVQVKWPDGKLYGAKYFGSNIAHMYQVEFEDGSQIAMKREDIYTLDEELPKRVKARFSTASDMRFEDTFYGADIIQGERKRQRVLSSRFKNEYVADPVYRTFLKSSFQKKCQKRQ
Neuropeptide Y receptor type 1, sequence (P25929 whole entry): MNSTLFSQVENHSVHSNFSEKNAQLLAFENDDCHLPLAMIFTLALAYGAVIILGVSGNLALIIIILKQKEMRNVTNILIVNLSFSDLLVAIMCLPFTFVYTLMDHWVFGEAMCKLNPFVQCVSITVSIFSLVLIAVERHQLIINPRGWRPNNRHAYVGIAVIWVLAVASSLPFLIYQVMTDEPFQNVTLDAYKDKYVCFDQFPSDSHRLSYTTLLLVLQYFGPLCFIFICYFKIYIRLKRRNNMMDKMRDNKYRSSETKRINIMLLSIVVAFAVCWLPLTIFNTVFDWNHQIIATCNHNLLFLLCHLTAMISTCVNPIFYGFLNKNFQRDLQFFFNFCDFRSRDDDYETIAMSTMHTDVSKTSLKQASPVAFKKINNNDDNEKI
Hexokinase-1, sequence (P19367 whole entry): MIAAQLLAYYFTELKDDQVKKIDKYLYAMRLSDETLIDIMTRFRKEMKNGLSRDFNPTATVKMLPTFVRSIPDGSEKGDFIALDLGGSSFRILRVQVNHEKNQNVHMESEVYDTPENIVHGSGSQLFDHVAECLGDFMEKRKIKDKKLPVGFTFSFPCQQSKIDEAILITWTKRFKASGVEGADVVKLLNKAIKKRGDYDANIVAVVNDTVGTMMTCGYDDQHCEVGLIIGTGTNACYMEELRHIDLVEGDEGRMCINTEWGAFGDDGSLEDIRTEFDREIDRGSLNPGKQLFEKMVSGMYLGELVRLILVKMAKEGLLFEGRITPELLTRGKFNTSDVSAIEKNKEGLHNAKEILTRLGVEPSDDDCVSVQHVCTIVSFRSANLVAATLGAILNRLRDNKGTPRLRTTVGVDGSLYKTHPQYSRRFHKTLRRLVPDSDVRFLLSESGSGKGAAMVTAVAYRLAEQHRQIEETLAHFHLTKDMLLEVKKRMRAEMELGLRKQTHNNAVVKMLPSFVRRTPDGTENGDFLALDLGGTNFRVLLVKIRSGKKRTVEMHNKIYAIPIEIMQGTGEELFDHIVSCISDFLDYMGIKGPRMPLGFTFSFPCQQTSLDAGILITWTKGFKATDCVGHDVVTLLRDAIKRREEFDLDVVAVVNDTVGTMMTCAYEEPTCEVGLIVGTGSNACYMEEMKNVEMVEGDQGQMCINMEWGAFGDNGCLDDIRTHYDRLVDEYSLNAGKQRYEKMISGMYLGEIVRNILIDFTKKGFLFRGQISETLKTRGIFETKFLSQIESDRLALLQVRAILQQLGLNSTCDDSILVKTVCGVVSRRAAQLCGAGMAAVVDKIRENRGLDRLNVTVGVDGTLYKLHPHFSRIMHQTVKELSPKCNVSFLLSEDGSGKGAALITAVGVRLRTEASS

A word on the EC50: it is the midpoint of the concentration-response curve. `Cc1ccccc1NC1=NN=C(c2ccccc2F)CS1`: the EC50 was 27 µM (inactive) at Hexokinase HKDC1 and 53.2 µM (inactive) at Hexokinase-1.

Usually IC50 stands for the midpoint of a concentration-inhibition curve. The term AC50 denotes the concentration giving half of the maximal activity seen. As usually defined, the CC50 is the concentration that lowers cell viability or growth by half. As to `COC(=O)c1c(C)oc2ccc(N(C(=O)c3ccncc3)S(=O)(=O)c3ccc4ccccc4c3)cc12`, the IC50 in test [1] was 4.84 µM (active); in [2], 7.94 µM (active). The AC50 in test [3] is 4.46 µM (active); in the test with INS1 it was 12.9 µM (active). For the same compound, in [4], the cytotoxic concentration (CC50) is 36.5 µM (active). For the same compound, the EC50 on Protein RecA is 4.08 µM (active).

`Cc1cccc(-n2cnc(C(=O)NN=C(S)Nc3ccccc3)c2)n1`: the IC50 in [5] was > 122 µM (inactive); at Nonstructural protein 1, 4.86 µM (active); in [6], 14.8 µM (active); in test [7], 6.96 µM (active); at Bcl-2-related protein A1, > 20 µM (inactive). The AC50 in test [8] was 5.67 µM (active).
